Values of other authors as cited in US10995093B2, “Synthesis of 2′-fluoro-6′-methylene-carbocyclic adenosine (FMCA) and 2′-fluoro-6′methylene-carbocyclic guanosine (FMCG)” (UNIVERSITY OF GEORGIA RESEARCH FOUNDATION, INC., priority 2016, dated 2021).
“Also recorded” adds a separate entry of the source.

How the values were obtained:
[1] = system: wild-type HBV
[2] = system: lamivudine/entecavir-resistant clone (L180M+M204V+S202G)
[3] = no significant toxicity observed up to 100 μM
[4] = system: lamivudine, adefovir, and double lamivudine/entecavir-resistant mutants; details: drug-resistant mutants

Compound: C=C1[C@@H](n2cnc3c(N)ncnc32)[C@@H](F)[C@H](O)[C@H]1CO [FMCA, (1R,3R,5R)-3-(6-amino-9H-purin-9-yl)-2-fluoro-5-(hydroxymethyl)-4-methylenecyclopentanol]
- activity against wild-type HBV [1]: significant activity; also recorded: potential antiviral activity
- antiviral activity against lamivudine/entecavir-resistant clone [2]: potential antiviral activity
- mitochondrial and cellular toxicity, concentration up to which no significant toxicity was observed [3]: > 100 µM
- activity against lamivudine, adefovir, and double lamivudine/entecavir-resistant mutants [4]: significant activity
